# According to patent US5710174A, “Factor XIIIA inhibitor” (Zymo Genetics, Inc., priority 1995, dated 1998):
# Where two headings read alike, the source gives them in different places.
# What was measured:
# Assay type in all cases: biochemical
# tTG = target: T1, tTG (Cavia cutleri, UniProt P08587); assay: Fibrinogen clotting assay, tTG (alpha bands scanned); conditions: read-out: % tTG Inhibition
# T1 construct: purchased Sigma
# T1 sequence (P08587 1-690): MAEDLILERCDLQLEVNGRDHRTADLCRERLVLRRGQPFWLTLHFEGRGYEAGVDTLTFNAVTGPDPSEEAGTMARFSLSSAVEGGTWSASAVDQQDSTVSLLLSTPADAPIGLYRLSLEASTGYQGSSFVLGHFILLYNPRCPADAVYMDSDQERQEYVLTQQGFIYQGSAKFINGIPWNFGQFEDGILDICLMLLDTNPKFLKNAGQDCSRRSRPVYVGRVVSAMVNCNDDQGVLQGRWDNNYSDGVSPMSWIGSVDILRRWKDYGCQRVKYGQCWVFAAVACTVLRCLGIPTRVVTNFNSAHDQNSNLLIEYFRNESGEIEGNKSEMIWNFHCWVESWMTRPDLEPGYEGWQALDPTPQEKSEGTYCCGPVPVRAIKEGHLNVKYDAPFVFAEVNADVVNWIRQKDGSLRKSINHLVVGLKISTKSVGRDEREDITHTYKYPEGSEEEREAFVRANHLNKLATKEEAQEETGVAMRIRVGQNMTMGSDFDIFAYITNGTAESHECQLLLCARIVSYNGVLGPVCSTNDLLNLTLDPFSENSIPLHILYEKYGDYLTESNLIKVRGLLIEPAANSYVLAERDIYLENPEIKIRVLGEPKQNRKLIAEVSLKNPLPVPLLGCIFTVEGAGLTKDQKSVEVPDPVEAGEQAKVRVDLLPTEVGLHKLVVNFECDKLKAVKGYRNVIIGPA
# Description: (§1) Clots were formed in 1.5 ml Eppendorf tubes by adding reagents to give the following final assay concentrations in a total volume of 100 μl: 2 mg/ml FXIII-free fibrinogen purified on a rabbit anti-FXIII column (Enzyme Research Labs); 20 mM CaCl2; 1 unit/ml thrombin (bovine, Enzyme Research Labs); and either 1 μg/ml FXIIIa (recombinant human FXIIIa2 (ZymoGenetics)) or 20 μg/ml tTG (Sigma) in 120 mM NaCl plus 25 mM Tris at about pH 7.2. In addition, 10 μl of one of the following was added to each tube in varying concentrations to determine a dose response: iodoacetamide, ZG-1400a or cerulenin. The final reaction volume in each Eppendorf tube was adjusted to 100 μl with 120 mMNaCl plus 25 mM Tris at about pH 7.2.
# (§2) A positive (complete cross-linking) control contained fibrinogen, enzyme (FXIIIa or tTG), calcium, and thrombin at final assay concentrations listed above, and was tested in the absence of any inhibitor. A negative (no cross-linking) control contained a solution of FXIII-free fibrinogen, thrombin and 20 μM EDTA [(ethylene dinitrilo)tetraacetic acid, disodium salt, dihydrate (J. T. Baker, Phillipsburg, N.J.)] in the absence of calcium and enzyme. Both positive and negative controls contained a final DMSO concentration of 1%. The FXIIIa-treated clots and their controls were incubated for about 10 min at about 37° C., while the tTG-treated clots and their controls were incubated for about 4 h at about 37° C. After incubation, all of the clots and controls were frozen to quench reactions.
# (§3) Frozen clots and controls were boiled for about 3 min, centrifuged at 14,000 RPM for 5 min, and then the supernatant was removed. The clots were resuspended in 100 μl lysis buffer and incubated overnight at 37° C. The lysis buffer Contained 10M urea, 10 mM EDTA, 1% sodium dodecyl sulfate ("SDS"), and 1% 2-mercaptoethanol. After incubation, approximately 5 μl of each sample was brought to a final volume of 20 μl with a reducing sample buffer (containing 125 mM Tris, pH 6.8, 20% glycerol, 4% SDS, 10% 2-mercaptoethanol, and 0.025% bromophenol blue), and applied to 4-15% gradient gels (Integrated Separation Systems, Natick, Mass.) for polyacrylamide electrophoresis (PAGE) at 200 volts for approximately 1 h or until the tracking dye reached the bottom of the gel.
# (§4) After staining with Coomassie blue, the alpha, beta, and gamma chains of fibrin were visualized as bands on the gel. The presence of FXIIIa-catalyzed fibrin cross-linking was observed by the appearance of a gamma-gamma dimer, and the disappearance of the monomeric gamma band from the gels. The tTG cross-linking occurs by formation of alpha chain polymers and alpha2 -gamma oligomers. Since there are many bands, they are difficult to visualize. A better indication of tTG cross-linking was the disappearance of the monomeric alpha band from the gels. In addition, the gamma band was reduced, but to a lesser degree than in FXIIIa cross-linked clots.
# (§5) The gels were also scanned on a densitometer (Bio Image Whole Band Analyzer, Millipore Corp., Bedford, Mass.). The relative intensity of gamma-gamma bands were scanned and compared for FXIIIa inhibition, while alpha bands were scanned and compared for tTG inhibition. No cross-linkingwas detected in the negative controls containing only FXIII-free fibrinogen thrombin and DMSO. […] The inhibition results obtained from PAGE of samples prepared as described above, and containing ZG-1400a at 100 μM and 10 μM, or cerulenin or iodoacetamide at 1 mM, 100 μM, and 10 μM, are shown in Table 2.
# FXIIIa [1] = target: T2, FXIIIa (Homo sapiens, UniProt P00488); assay: Primary FXIIIa screening assay (cross-linking of biotinylated fibrinogen and immobilized fibronectin)
# T2 sequence (P00488 39-732 limits assumed): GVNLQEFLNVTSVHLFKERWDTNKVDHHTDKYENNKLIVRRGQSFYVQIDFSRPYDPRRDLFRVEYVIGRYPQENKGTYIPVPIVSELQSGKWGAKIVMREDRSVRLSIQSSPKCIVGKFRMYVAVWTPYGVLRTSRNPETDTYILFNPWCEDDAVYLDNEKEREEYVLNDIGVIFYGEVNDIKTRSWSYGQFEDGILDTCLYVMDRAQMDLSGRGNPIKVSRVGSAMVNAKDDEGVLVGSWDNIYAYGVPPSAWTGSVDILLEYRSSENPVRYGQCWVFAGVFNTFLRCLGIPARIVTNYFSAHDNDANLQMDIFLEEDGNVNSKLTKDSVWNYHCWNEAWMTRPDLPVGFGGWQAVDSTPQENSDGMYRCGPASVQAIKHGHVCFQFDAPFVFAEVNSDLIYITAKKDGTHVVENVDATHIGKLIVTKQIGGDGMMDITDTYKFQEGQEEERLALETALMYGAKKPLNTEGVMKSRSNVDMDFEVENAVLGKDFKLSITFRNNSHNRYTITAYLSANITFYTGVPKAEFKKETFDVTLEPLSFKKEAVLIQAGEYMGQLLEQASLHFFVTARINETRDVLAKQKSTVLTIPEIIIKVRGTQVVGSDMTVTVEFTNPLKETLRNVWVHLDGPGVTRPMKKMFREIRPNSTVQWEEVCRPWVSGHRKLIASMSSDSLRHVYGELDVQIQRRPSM
# Description: The primary FXIIIa screening assay used a 96-well high throughput assay format. This assay assesses test sample inhibition of FXIIIa catalyzed cross-linking of biotinylated fibrinogen and immobilized fibronectin.
# Test samples (possibly containing FXIIIa inhibitors) were added to 96-well plates coated with fibronectin, followed by the addition of FXIIIa, as described in the primary FXIIIa screening assay, below. Biotinylated fibrinogen was added to the wells, and streptavidin-alkaline phosphatase was used to detect biotinylated fibrinogen that had been cross-linked to fibronectin.
# Purified fibronectin was diluted to 1 μg/ml in 0.1M Na2 CO3, pH 9.7, and added to control and test assay wells of 96-well plates at 100 μl/well. All wells were incubated overnight at 4° C.
# After incubation, the plate wells were washed twice with 200 μl/well of wash buffer per wash to remove all fibronectin not bound to the wells. The wash buffer contained 0.135M NaCl, 2.7 mM KCl, 25 mM Tris at about pH 7.4, and 0.1% Tween 20® (Sigma Chemical Co., St. Louis, Mo.; polyoxyethylenesorbitan monolaurate). The plate wells were then blocked with 200 μl/well blocking buffer and incubated for 1-2 h at 37° C. The blocking buffer contained 0.135M NaCl, 2.7 mM KCl, 25 mM Tris at about pH 7.4, 0.1% Tween 20®, and 0.5% BSA (bovine serum albumin, Sigma fraction V; Sigma). After incubation, the plates wells were again washed with 200 μl/well of wash buffer to remove excess blocking buffer.
# Briefly, fibrinogen was dialyzed against 0.1M NaHCO3, pH 8.5 (coupling buffer) at a concentration of 1 mg/ml. BNHS was dissolved in dimethylformamide at a concentration of 1.7 mg/ml, and added to fibrinogen in coupling buffer at a ratio of 30 μl BNHS to 1 ml fibrinogen. The mixture was incubated with rocking for 4 h at room temperature, dialyzed against PBS, and stored in aliquots at -80° C.
# Biotinylated fibrinogen (40 μl of 20 μg/ml solution) was added to each plate well. Except in control wells (which received 10 μl of 10% DMSO alone), 10 μl of each of the 11,198 crude extracts in 10% DMSO were added to duplicate wells after the addition of biotinylated fibrinogen, resulting in a 1% final assay concentration of DMSO.
# FXIIIa (recombinant human FXIIIa2 (ZymoGenetics), as described in European Patent No. 0 268 772, granted Apr. 26, 1995, and incorporated herein by reference) was diluted to 100 μg/ml in a solution of 50 mM Tris, 5 mM CaCl2 at pH 7.4 containing 1 unit/ml thrombin (bovine; Enzyme Research Labs) and incubated for 20 min at 37° C. FXIIIa then was diluted to 1 μg/ml in a cross-linking buffer consisting of the blocking buffer described above plus 20 mM CaCl2 and 75 ng/ml D-phenylalanyl-L-prolyl-L-arginine chloromethyl ketone (PPACK; Calbiochem, La Jolla, Calif.). Fifty microliters of FXIIIa in cross-linking buffer was added to each test and control well. All wells then were incubated for about 10 min at 37° C.
# After incubation, the wells were washed twice with 200 μl/well of wash buffer to remove all biotinylated fibrinogen that was not cross-linked to fibronectin.
# FXIIIa [2] = target: T2, FXIIIa; assay: Fibrinogen clotting assay, FXIIIa (gamma-gamma bands scanned); conditions: read-out: % FXIIIa Inhibition
# Description: as §1, §2, §3, §4, §5
# [3] = 10 μM, alpha bands, densitometer
# [4] = 100 μM, alpha bands, densitometer
# [5] = purified compound, read-out: IC50 FXIIIa Primary Screen
# [6] = 10 μM, gamma-gamma bands, densitometer
# [7] = 100 μM, gamma-gamma bands, densitometer
SMILES,inhibition at 10 µM (tTG; [3]),inhibition at 100 µM (tTG; [4]),inhibition of FXIIIa (FXIIIa [1]; 0.01X concentration),IC50 (FXIIIa [1]; [5]),inhibition at 10 µM (FXIIIa [2]; [6]),inhibition at 100 µM (FXIIIa [2]; [7]),"inhibition at 1000 µM (tTG; 1 mM, alpha bands, densitometer)","inhibition at 1000 µM (FXIIIa [2]; 1 mM, gamma-gamma bands, densitometer)",inhibition at 10 µM (tTG),inhibition at 100 µM (tTG),inhibition at 1000 µM (tTG),IC50 (FXIIIa [1]),inhibition at 10 µM (FXIIIa [2]),inhibition at 100 µM (FXIIIa [2]),inhibition at 1000 µM (FXIIIa [2])
"C[C@@H]1CCC/C=C\C(=O)Cc2cc(O)cc(O)c2C(=O)O1 [ZG-1400, R(-) enantiomer of cis-resorcylide]",80%,83%,about 65%,5.7 µM,66%,100%,,,,,,,,,
"CC=CCC=CCCC(=O)C1OC1C(N)=O (centres unmarked) [Cerulenin, 2,3-epoxy-4-oxo-7,10-dodecadienamide]",30%,79%,,29 µM,8%,38%,94%,100%,,,,,,,
"NC(=O)CI [Iodoacetamide, iodoacetamide]",,,,,,,,,72%,68%,60%,320 µM,66%,100%,100%
